Target: T1, histamine H3 receptor (Homo sapiens, UniProt Q9Y5N1)
T1 construct: expressed in transfected cells; host or cells: CHO K1 cells (pSwitch/pGene GeneSwitch system, mifepristone-induced), clone 3H3; membranes
Test: Histamine H3 functional antagonist assay ([35S]-GTPγS SPA on membranes of H3 cells)
Format: biochemical
Settings: membrane prepared from cultured H3 cells (CHO K1, human H3); histamine at EC80; averages of a number of experiments; read-out: functional pKi (fpKi), H3 functional antagonist assay (converted)
Text: A membrane preparation containing histamine H3 receptors may be prepared in accordance with the following procedures:
(i) Generation of Histamine H3 Cell Line
DNA encoding the human histamine H3 gene (Huvar, A. et al. (1999) Mol. Pharmacol. 55(6), 1101-1107) was cloned into a holding vector, pcDNA3.1 TOPO (InVitrogen) and its cDNA was isolated from this vector by restriction digestion of plasmid DNA with the enzymes BamH1 and Not-1 and ligated into the inducible expression vector pGene (InVitrogen) digested with the same enzymes. The GeneSwitch™ system (a system where in transgene expression is switched off in the absence of an inducer and switched on in the presence of an inducer) was performed as described in U.S. Pat. Nos. 5,364,791; 5,874,534; and 5,935,934. Ligated DNA was transformed into competent DH5α E. coli host bacterial cells and plated onto Luria Broth (LB) agar containing Zeocin™ (an antibiotic which allows the selection of cells expressing the sh ble gene which is present on pGene and pSwitch) at 50 μg ml^−1. Colonies containing the re-ligated plasmid were identified by restriction analysis. DNA for transfection into mammalian cells was prepared from 250 ml cultures of the host bacterium containing the pGeneH3 plasmid and isolated using a DNA preparation kit (Qiagen Midi-Prep) as per manufacturers guidelines (Qiagen). CHO K1 cells previously transfected with the pSwitch regulatory plasmid (InVitrogen) were seeded at 2×10e6 cells per T75 flask in Complete Medium, containing Hams F12 (GIBCOBRL, Life Technologies) medium supplemented with 10% v/v dialysed foetal bovine serum, L-glutamine, and hygromycin (100 μg ml^−1), 24 hours prior to use. Plasmid DNA was transfected into the cells using Lipofectamine plus according to the manufacturers guidelines (InVitrogen). 48 hours post transfection cells were placed into complete medium supplemented with 500 μg ml^−1 Zeocin™.
10-14 days post selection 10 nM Mifepristone (InVitrogen), was added to the culture medium to induce the expression of the receptor. 18 hours post induction cells were detached from the flask using ethylenediamine tetra-acetic acid (EDTA; 1:5000; InVitrogen), following several washes with phosphate buffered saline pH 7.4 and resuspended in Sorting Medium containing Minimum Essential Medium (MEM), without phenol red, and supplemented with Earles salts and 3% Foetal Clone II (Hyclone). Approximately 1×10e7 cells were examined for receptor expression by staining with a rabbit polyclonal antibody, 4a, raised against the N-terminal domain of the histamine H3 receptor, incubated on ice for 60 minutes, followed by two washes in sorting medium. Receptor bound antibody was detected by incubation of the cells for 60 minutes on ice with a goat anti rabbit antibody, conjugated with Alexa 488 fluorescence marker (Molecular Probes). Following two further washes with Sorting Medium, cells were filtered through a 50 μm Filcon™ (BD Biosciences) and then analysed on a FACS Vantage SE Flow Cytometer fitted with an Automatic Cell Deposition Unit. Control cells were non-induced cells treated in a similar manner. Positively stained cells were sorted as single cells into 96-well plates, containing Complete Medium containing 500 μg ml^−1 Zeocin™ and allowed to expand before reanalysis for receptor expression via antibody and ligand binding studies. One clone, 3H3, was selected for membrane preparation.
(ii) Membrane Preparation from Cultured Cells
All steps of the protocol are carried out at 4° C. and with pre-cooled reagents. The cell pellet is resuspended in 10 volumes of homogenisation buffer (50 mM N-2-hydroxyethylpiperazine-N′-2-ethanesulfonic acid (HEPES), 1 mM ethylenediamine tetra-acetic acid (EDTA), pH 7.4 with KOH, supplemented with 10e-6M leupeptin (acetyl-leucyl-leucyl-arginal; Sigma L2884), 25 μg/ml bacitracin (Sigma B0125), 1 mM phenylmethylsulfonyl fluoride (PMSF) and 2×10e-6M pepstain A (Sigma)). […]

T1 sequence (Q9Y5N1 whole entry): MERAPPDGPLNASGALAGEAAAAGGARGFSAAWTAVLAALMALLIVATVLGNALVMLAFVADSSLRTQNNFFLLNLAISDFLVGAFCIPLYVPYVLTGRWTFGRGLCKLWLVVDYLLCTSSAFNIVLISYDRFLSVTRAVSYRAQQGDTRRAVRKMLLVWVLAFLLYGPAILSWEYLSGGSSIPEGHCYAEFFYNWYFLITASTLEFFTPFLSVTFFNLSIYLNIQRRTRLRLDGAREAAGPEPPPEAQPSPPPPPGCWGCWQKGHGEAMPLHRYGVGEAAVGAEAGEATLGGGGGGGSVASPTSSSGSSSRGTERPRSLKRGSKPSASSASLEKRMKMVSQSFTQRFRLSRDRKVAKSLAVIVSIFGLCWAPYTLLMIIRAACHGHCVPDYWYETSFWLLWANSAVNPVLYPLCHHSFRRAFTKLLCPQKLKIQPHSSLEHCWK

Row | SMILES | Ki [nM]
1 | N#Cc1ccc(Cc2ccc3c(c2)CCN(C2CCC2)CC3)cc1 [Example E1, 4-[(3-Cyclobutyl-2,3,4,5-tetrahydro-1H-3-benzazepin-7-yl)methyl]benzonitrile] | < 0.316
2 | O=C1CCCN1c1cnc(Cc2ccc3c(c2)CCN(C2CCC2)CC3)cn1 [Example E31, 1-{5-[(3-Cyclobutyl-2,3,4,5-tetrahydro-1H-3-benzazepin-7-yl)methyl]-2-pyrazinyl}-2-pyrrolidinone] | < 0.316
3 | N#Cc1ccc(Cc2ccc3c(c2)CCN(C2CCC2)CC3)nc1 [Example E41, 6-[(3-cyclobutyl-2,3,4,5-tetrahydro-1H-3-benzazepin-7-yl)methyl]-3-pyridinecarbonitrile] | < 3.16
4 | CNC(=O)c1cnc(Cc2ccc3c(c2)CCN(C2CCC2)CC3)cn1 [Example E33, 5-[(3-Cyclobutyl-2,3,4,5-tetrahydro-1H-3-benzazepin-7-yl)methyl]-N-methyl-2-pyrazinecarboxamide] | < 0.316
5 | NC(=O)c1ccc(Cc2ccc3c(c2)CCN(C2CCC2)CC3)cc1 [Example E46, 4-[(3-cyclobutyl-2,3,4,5-tetrahydro-1H-3-benzazepin-7-yl)methyl]benzamide] | < 0.316
6 | CCNC(=O)c1cnc(Cc2ccc3c(c2)CCN(C2CCC2)CC3)cn1 [Example E34, 5-[(3-Cyclobutyl-2,3,4,5-tetrahydro-1H-3-benzazepin-7-yl)methyl]-N-ethyl-2-pyrazinecarboxamide] | < 3.16
7 | O=C(c1ccc(Cc2ccc3c(c2)CCN(C2CCC2)CC3)cc1)N1CCCCC1 [Example E18, 3-Cyclobutyl-7-{[4-(1-piperidinylcarbonyl)phenyl]methyl}-2,3,4,5-tetrahydro-1H-3-benzazepine] | < 3.16
8 | CCNC(=O)c1ccc(Cc2ccc3c(c2)CCN(C2CCC2)CC3)cc1 [Example E48, 4-[(3-cyclobutyl-2,3,4,5-tetrahydro-1H-3-benzazepin-7-yl)methyl]-N-ethylbenzamide] | < 3.16
9 | Cc1noc(-c2cnc(Cc3ccc4c(c3)CCN(C3CCC3)CC4)cn2)n1 [Example E15, 3-Cyclobutyl-7-{[5-(3-methyl-1,2,4-oxadiazol-5-yl)-2-pyrazinyl]methyl}-2,3,4,5-tetrahydro-1H-3-benzazepine] | < 3.16
10 | c1cnc(Cc2ccc3c(c2)CCN(C2CCC2)CC3)cn1 [Example E30, 3-Cyclobutyl-7-(2-pyrazinylmethyl)-2,3,4,5-tetrahydro-1H-3-benzazepine] | < 3.16
11 | O=C1CCCN1c1ccc(Cc2ccc3c(c2)CCN(C2CCC2)CC3)nc1 [Example E5, 1-{6-[(3-cyclobutyl-2,3,4,5-tetrahydro-1H-3-benzazepin-7-yl)methyl]-3-pyridinyl}-2-pyrrolidinone] | < 3.16
12 | CC(C)NC(=O)c1ccc(Cc2ccc3c(c2)CCN(C2CCC2)CC3)cn1 [Example E53, 5-[(3-cyclobutyl-2,3,4,5-tetrahydro-1H-3-benzazepin-7-yl)methyl]-N-(1-methylethyl)-2-pyridinecarboxamide] | < 3.16
13 | c1cnn(-c2ccc(Cc3ccc4c(c3)CCN(C3CCC3)CC4)cc2)c1 [Example E59, 3-cyclobutyl-7-{[4-(1H-pyrazol-1-yl)phenyl]methyl}-2,3,4,5-tetrahydro-1H-3-benzazepine] | < 0.316
14 | NC(=O)c1ccc(Cc2ccc3c(c2)CCN(C2CCC2)CC3)cn1 [Example E27, 5-[(3-Cyclobutyl-2,3,4,5-tetrahydro-1H-3-benzazepin-7-yl)methyl]-2-pyridinecarboxamide] | < 3.16
15 | N#Cc1ccc(Cc2ccc3c(c2)CCN(C2CCC2)CC3)cn1 [Example E12, 5-[(3-Cyclobutyl-2,3,4,5-tetrahydro-1H-3-benzazepin-7-yl)methyl]-2-pyridinecarbonitrile] | < 3.16
16 | O=C(NC1CCOCC1)c1ccc(Cc2ccc3c(c2)CCN(C2CCC2)CC3)cc1 [Example E50, 4-[(3-cyclobutyl-2,3,4,5-tetrahydro-1H-3-benzazepin-7-yl)methyl]-N-(tetrahydro-2H-pyran-4-yl)benzamide] | < 3.16
17 | CN(C)C(=O)c1cnc(Cc2ccc3c(c2)CCN(C2CCC2)CC3)cn1 [Example E22, 5-[(3-Cyclobutyl-2,3,4,5-tetrahydro-1H-3-benzazepin-7-yl)methyl]-N,N-dimethyl-2-pyrazinecarboxamide] | < 3.16
18 | O=C(c1ccc(Cc2ccc3c(c2)CCN(C2CCC2)CC3)cn1)N1CCCC1 [Example E54, 3-cyclobutyl-7-{[6-(1-pyrrolidinylcarbonyl)-3-pyridinyl]methyl}-2,3,4,5-tetrahydro-1H-3-benzazepine] | < 3.16
19 | O=C(NCC(F)(F)F)c1cnc(Cc2ccc3c(c2)CCN(C2CCC2)CC3)cn1 [Example E23, 5-[(3-Cyclobutyl-2,3,4,5-tetrahydro-1H-3-benzazepin-7-yl)methyl]-N-(2,2,2-trifluoroethyl)-2-pyrazinecarboxamide] | < 3.16
20 | O=c1nc(-c2ccc(Cc3ccc4c(c3)CCN(C3CCC3)CC4)cc2)[nH]o1 [Example E58, 3-{4-[(3-cyclobutyl-2,3,4,5-tetrahydro-1H-3-benzazepin-7-yl)methyl]Phenyl}-1,2,4-oxadiazol-5(2H)-one] | < 3.16
21 | c1ncn(-c2ccc(Cc3ccc4c(c3)CCN(C3CCC3)CC4)cc2)n1 [Example E60, 3-cyclobutyl-7-{[4-(1H-1,2,4-triazol-1-yl)phenyl]methyl}-2,3,4,5-tetrahydro-1H-3-benzazepine] | < 0.316
22 | O=C1CCCN1c1ccc(Cc2ccc3c(c2)CCN(C2CCCC2)CC3)cc1 [Example E36, 1-{4-[(3-Cyclopentyl-2,3,4,5-tetrahydro-1H-3-benzazepin-7-yl)methyl]phenyl}-2-pyrrolidinone] | < 3.16
23 | O=C1OCCN1c1ccc(Cc2ccc3c(c2)CCN(C2CCC2)CC3)cn1 [Example E39, 3-{5-[(3-Cyclobutyl-2,3,4,5-tetrahydro-1H-3-benzazepin-7-yl)methyl]-2-pyridinyl}-1,3-oxazolidin-2-one] | < 3.16
24 | O=C(c1ccc(Cc2ccc3c(c2)CCN(C2CCC2)CC3)cc1)N1CCOCC1 [Example E19, 3-Cyclobutyl-7-{[4-(4-morpholinylcarbonyl)phenyl]methyl}-2,3,4,5-tetrahydro-1H-3-benzazepine] | < 3.16
25 | N#CCNC(=O)c1cnc(Cc2ccc3c(c2)CCN(C2CCC2)CC3)cn1 [Example E24, N-(Cyanomethyl)-5-[(3-cyclobutyl-2,3,4,5-tetrahydro-1H-3-benzazepin-7-yl)methyl]-2-pyrazinecarboxamide] | < 3.16
26 | O=C(c1ccc(Cc2ccc3c(c2)CCN(C2CCC2)CC3)cc1)N1CCCC1 [Example E49, 3-cyclobutyl-7-{[4-(1-pyrrolidinylcarbonyl)phenyl]methyl}-2,3,4,5-tetrahydro-1H-3-benzazepine] | < 3.16
27 | O=C1CCCN1c1ccc(Cc2ccc3c(c2)CCN(C2CCC2)CC3)cc1 [Example E28, 1-{4-[(3-Cyclobutyl-2,3,4,5-tetrahydro-1H-3-benzazepin-7-yl)methyl]phenyl}-2-pyrrolidinone] | < 3.16
28 | CN(C)C(=O)c1ccc(Cc2ccc3c(c2)CCN(C2CCC2)CC3)cc1 [Example E17, 4-[(3-Cyclobutyl-2,3,4,5-tetrahydro-1H-3-benzazepin-7-yl)methyl]-N,N-dimethylbenzamide] | < 3.16
29 | Cc1noc(-c2ccc(Cc3ccc4c(c3)CCN(C3CCC3)CC4)cn2)n1 [Example E14, 3-Cyclobutyl-7-{[6-(3-methyl-1,2,4-oxadiazol-5-yl)-3-pyridinyl]methyl}-2,3,4,5-tetrahydro-1H-3-benzazepine] | < 3.16

Reference: patent publication US20070208005A1, “TETRAHYDROBENZAZEPINES AS ANTAGONISTS AND/OR REVERSE AGONISTS OF THE HISTAMINE H3 RECEPTOR” (priority 2004, published 2007)
